Test results from patent publication US10851067B2, “Kv7 channel activators compositions and methods of use” (Knopp Biosciences LLC, priority 2018, dated 2020).

What follows are compounds tested against Kv7.2/7.3 (Homo sapiens, UniProt O43525+O43526) (assay: Kv7.2/7.3 Activation Assay, QPatch single concentration screen). Conditions: Kv7.2/Kv7.3 co-expressing HEK cells, compound concentration 3 μM, steady-state current at end of 2 s pulse to −30 mV.
Format: cell-based
Parameters: host or cells: HEK cells, tetracycline-inducible expression; key: 1.2-2.9 (+); 3-3.9 (++); >4 (+++) fold increase over baseline; O represents open channel at holding potential
Procedure, shortened: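 Tetracycline-induced HEK cells expressing human Kv7.2/7.3, recorded 24 h post-induction by automated planar patch clamp. From −80 mV, 2 s steps to −30 mV then 100 ms to −120 mV; compound tested at 3 μM (0.1% DMSO). Steady-state current at end of −30 mV step gives fold increase over baseline.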

| SMILES | Kv7.2/7.3 Activity: increase over baseline in current |
| --- | --- |
| CC(C)(C)CC(=O)Nc1nc2ccc(C#N)cc2n1C1(C)CCC1 [Example 337, N-(6-cyano-1-(1-methylcyclobutyl)-1H-benzo[d]imidazol-2-yl)-3,3-dimethylbutanamide] | ++ (3-3.9 (++)) |
| CC(C)(CC(=O)Nc1nc2cc(F)c(OC(F)F)cc2n1C(C)(C)C)C1CC1 [Example 368, N-(1-(tert-butyl)-6-(difluoromethoxy)-5-fluoro-1H-benzo[d]imidazol-2-yl)-3-cyclopropyl-3-methylbutanamide] | + (1.2-2.9 (+)) |
| CC(C)(O)c1ccc2nc(NC(=O)CC(C)(O)c3ccccc3)n(C34CC(C3)C4)c2c1 (single isomer, unassigned) [Example 335, N-(1-(bicyclo[1.1.1]pentan-1-yl)-6-(2-hydroxypropan-2-yl)-1H-benzo[d]imidazol-2-yl)-3-hydroxy-3-phenylbutanamide] | O |
| COCc1c(F)ccc2nc(NC(=O)CC(C)(C)C)n(C3CCC3)c12 [Example 394, N-(1-cyclobutyl-6-fluoro-7-(methoxymethyl)-1H-benzo[d]imidazol-2-yl)-3,3-dimethylbutanamide] | O |
| CC(O)(CC(=O)Nc1nc2cccc(C#N)c2n1C1(C)CCC1)c1ccccc1 (single isomer, unassigned) [Example 375, N-(7-cyano-1-(1-methylcyclobutyl)-1H-benzo[d]imidazol-2-yl)-3-hydroxy-3-phenylbutanamide] | + (1.2-2.9 (+)) |
| C[C@H](C(=O)Nc1nc2ccc(C(C)(C)O)cc2n1C1CC(F)(F)C1)C(C)(C)C [Example 365, (S)-N-(1-(3,3-difluorocyclobutyl)-6-(2-hydroxypropan-2-yl)-1H-benzo[d]imidazol-2-yl)-2,3,3-trimethylbutanamide] | + (1.2-2.9 (+)) |
| CC(C)(C)CC(=O)Nc1nc2cc(F)cc(C#N)c2n1C1(C)CCC1 [Example 436, N-(7-cyano-5-fluoro-1-(1-methylcyclobutyl)-1H-benzo[d]imidazol-2-yl)-3,3-dimethylbutanamide] | ++ (3-3.9 (++)) |
| CN(C)c1ccc2nc(NC(=O)CC(C)(C)C)n(C3CCC3)c2c1F [Example 454, N-(1-cyclobutyl-6-(dimethylamino)-7-fluoro-1H-benzo[d]imidazol-2-yl)-3,3-dimethylbutanamide] | +++ (>4 (+++) fold increase over baseline) |
| COc1cccc2nc(NC(=O)CC(C)(C)C)n(C3CCC3)c12 [Example 476, N-(1-cyclobutyl-7-methoxy-1H-benzo[d]imidazol-2-yl)-3,3-dimethylbutanamide] | + (1.2-2.9 (+)) |
| CC(O)(CC(=O)Nc1nc2cccc(C#N)c2n1C1(C)CCC1)c1ccccc1 (single isomer, unassigned) [Example 468, N-(7-cyano-1-(1-methylcyclobutyl)-1H-benzo[d]imidazol-2-yl)-3-hydroxy-3-phenylbutanamide] | + (1.2-2.9 (+)) |
| CC(O)(CC(=O)Nc1nc2ccc(C#N)cc2n1CC(F)(F)F)c1ccccc1 (single isomer, unassigned) [Example 396, N-(6-cyano-1-(2,2,2-trifluoroethyl)-1H-benzo[d]imidazol-2-yl)-3-hydroxy-3-phenylbutanamide] | + (1.2-2.9 (+)) |
| CC(C)(C)CC(=O)Nc1nc2c(F)cc(Br)cc2n1C1CCC1 [Example 343, N-(6-bromo-1-cyclobutyl-4-fluoro-1H-benzo[d]imidazol-2-yl)-3,3-dimethylbutanamide] | +++ (>4 (+++) fold increase over baseline) |
| C[C@H](C(=O)Nc1nc2ccc(C(C)(C)O)cc2n1C12CC(C1)C2)C(C)(C)C [Example 455, (S)-N-(1-(bicyclo[1.1.1]pentan-1-yl)-6-(2-hydroxypropan-2-yl)-1H-benzo[d]imidazol-2-yl)-2,3,3-trimethylbutanamide] | ++ (3-3.9 (++)) |
| CC(C)(C)CC(=O)Nc1nc2c(F)cc(C(O)(CF)CF)cc2n1C1CCC1 [Example 479, N-(1-cyclobutyl-6-(1,3-difluoro-2-hydroxypropan-2-yl)-4-fluoro-1H-benzo[d]imidazol-2-yl)-3,3-dimethylbutanamide] | ++ (3-3.9 (++)) |
| CC(C)(O)c1ccc2nc(NC(=O)CC(C)(C)C3CC3)n(C34CC(C3)C4)c2c1 [Example 472, N-(1-(bicyclo[1.1.1]pentan-1-yl)-6-(2-hydroxypropan-2-yl)-1H-benzo[d]imidazol-2-yl)-3-cyclopropyl-3-methylbutanamide] | +++ (>4 (+++) fold increase over baseline) |
| CC(C)(C)n1c(NC(=O)CC(C)(C)C(F)(F)F)nc2c(F)cc(C#N)c(F)c21 [Example 349, N-(1-(tert-butyl)-6-cyano-4,7-difluoro-1H-benzo[d]imidazol-2-yl)-4,4,4-trifluoro-3,3-dimethylbutanamide] | ++ (3-3.9 (++)) |
| CC(O)(CC(=O)Nc1nc2ccc(C#N)cc2n1C1(C)CCC1)c1c(F)cccc1F (single isomer, unassigned) [Example 384, N-(6-cyano-1-(1-methylcyclobutyl)-1H-benzo[d]imidazol-2-yl)-3-(2,6-difluorophenyl)-3-hydroxybutanamide] | ++ (3-3.9 (++)) |
| C[C@H](C(=O)Nc1nc2ccc(C(C)(C)O)cc2n1CC(F)(F)F)C(C)(C)C [Example 407, (S)-N-(6-(2-hydroxypropan-2-yl)-1-(2,2,2-trifluoroethyl)-1H-benzo[d]imidazol-2-yl)-2,3,3-trimethylbutanamide] | ++ (3-3.9 (++)) |
| CC(C)(C)CC(=O)Nc1nc2ccc(Cl)c(C#N)c2n1C1CCC1 [Example 439, N-(6-chloro-7-cyano-1-cyclobutyl-1H-benzo[d]imidazol-2-yl)-3,3-dimethylbutanamide] | + (1.2-2.9 (+)) |
| CC1(Cn2c(NC(=O)CC(C)(O)c3ccccc3)nc3ccc(C#N)cc32)CC1 (single isomer, unassigned) [Example 471, N-(6-cyano-1-((1-methylcyclopropyl)methyl)-1H-benzo[d]imidazol-2-yl)-3-hydroxy-3-phenylbutanamide] | + (1.2-2.9 (+)) |
| CC(O)(CC(=O)Nc1nc2cc(F)c(C#N)cc2n1C1(C)CCC1)c1ccccc1F (single isomer, unassigned) [Example 373, N-(6-cyano-5-fluoro-1-(1-methylcyclobutyl)-1H-benzo[d]imidazol-2-yl)-3-(2-fluorophenyl)-3-hydroxybutanamide] | ++ (3-3.9 (++)) |

The next lines start with the values.

| Kv7.2/7.3 Activity: increase over baseline in current | SMILES |
| --- | --- |
| + (1.2-2.9 (+)) | CC(O)(CC(=O)Nc1nc2cc(Cl)c(C#N)cc2n1C1CCC1)c1ccccc1 (single isomer, unassigned) [Example 347, N-(5-chloro-6-cyano-1-cyclobutyl-1H-benzo[d]imidazol-2-yl)-3-hydroxy-3-phenylbutanamide] |
| + (1.2-2.9 (+)) | CC1(n2c(NC(=O)CC(C)(C)C(F)(F)F)nc3cc(F)cc(C#N)c32)CCC1 [Example 340, N-(7-cyano-5-fluoro-1-(1-methylcyclobutyl)-1H-benzo[d]imidazol-2-yl)-4,4,4-trifluoro-3,3-dimethylbutanamide] |
| ++ (3-3.9 (++)) | CC(O)(CC(=O)Nc1nc2ccc(C#N)cc2n1C1(C)CCC1)c1ccc(F)cc1F (single isomer, unassigned) [Example 460, N-(6-cyano-1-(1-methylcyclobutyl)-1H-benzo[d]imidazol-2-yl)-3-(2,4-difluorophenyl)-3-hydroxybutanamide] |
| + (1.2-2.9 (+)) | CC1(n2c(NC(=O)CC(O)(c3ccccc3)C(F)(F)F)nc3c(F)cc(OC(F)F)cc32)CCC1 (stereo not drawn) [Example 409, N-(6-(difluoromethoxy)-4-fluoro-1-(1-methylcyclobutyl)-1H-benzo[d]imidazol-2-yl)-4,4,4-trifluoro-3-hydroxy-3-phenylbutanamide] |
| ++ (3-3.9 (++)) | COc1c(Cl)c(Cl)c(Cl)c2nc(NC(=O)CC(C)(C)C)n(C3CCC3)c12 [Example 414, 3,3-dimethyl-N-(4,5,6-trichloro-1-cyclobutyl-7-methoxy-1H-benzo[d]imidazol-2-yl)butanamide] |
| ++ (3-3.9 (++)) | CC(C)(O)c1cc(F)c2nc(NC(=O)CC3CC(F)(F)C3(F)F)n(C3CCC3)c2c1 (single isomer, unassigned) [Example 466, N-(1-cyclobutyl-4-fluoro-6-(2-hydroxypropan-2-yl)-1H-benzo[d]imidazol-2-yl)-2-(2,2,3,3-tetrafluorocyclobutyl)acetamide] |
| O | CC(C)(O)c1ccc2nc(NC(=O)CC(C)(O)c3ccccc3)n(C34CC(C3)C4)c2c1 (single isomer, unassigned) [Example 371, N-(1-(bicyclo[1.1.1]pentan-1-yl)-6-(2-hydroxypropan-2-yl)-1H-benzo[d]imidazol-2-yl)-3-hydroxy-3-phenylbutanamide] |
| ++ (3-3.9 (++)) | CC(C)(C)CC(=O)Nc1nc2ccc(C#N)cc2n1C(C)(C)C(F)(F)F [Example 401, N-(6-cyano-1-(1,1,1-trifluoro-2-methylpropan-2-yl)-1H-benzo[d]imidazol-2-yl)-3,3-dimethylbutanamide] |
| ++ (3-3.9 (++)) | [2H]C([2H])([2H])C(CC(=O)Nc1nc2ccc(C(C)(C)O)cc2n1C1CCC1)(C([2H])([2H])[2H])C([2H])([2H])[2H] [Example 448, N-(1-cyclobutyl-6-(2-hydroxypropan-2-yl)-1H-benzo[d]imidazol-2-yl)-3,3-bis(methyl-d3)butanamide] |
